Laboratory results as given in US20260048051A1, “TREATMENT OF INFLAMMATORY BOWEL DISEASE” (Atomwise Inc., priority 2024, published 2026).
Where two headings read alike, the source gives them in different places.

Experiment: Plasma and tissue distribution in SD rats
Format: in vivo
Conditions: for Tissue/Plasma Ratio (AUCinf) / Kp: SD rat; for Kp: rat, oral, read-out: Tissue/Plasma Ratio (AUCinf); for Cmax / Tmax / half-life / AUC0-inf / AUC0-24 / AUC0-last: PO 10 mg/kg
Description: The following Example describes the methods and data used to evaluate the tissue distribution of TYK2 inhibitors following the administration of either compound 1 or compound 2.
Thirty (30, 15/sex) SD rats supplied by Beijing Vital River Laboratory Animal Technology Co., Ltd. were used in this study. The animals were confirmed to be healthy before being assigned to the study. The room (s) was controlled and monitored for relative humidity (targeted mean range 40% to 70%) and temperature (targeted mean range 20° C. to 26° C.) with 15 or above air changes/hour. The room was on a 12-hour light/dark cycle except when interruptions were necessitated by study activities. Fresh drinking water (reverses osmosis) was available to all animals, ad libitum. Certified animal diet from certified vendor was available to all animals, ad libitum.
Animals were weighed prior to dose administration to calculate the actual dose volume. The body weights were in the range from 245.39 to 276.33 g for males and 182.29 to 215.69 g for females on the first dosing day. The animals in Groups 1 and 2 received a single oral gavage administration of test compound 1. Cage-side observations for the general health condition and appearance of the animal were performed before and after dosing and at each time point of sample collection. Unusual observations were recorded throughout the duration of the study.
The vehicle was 0.5% methyl cellulose (4000 cps) in water. The formulation was prepared according to the following steps. Group 1: 25.95 mg of compound 1 was weighed into a glass vial. 5000 μL of vehicle was added into the vial and stirred for 30 min at 1700 rpm to get a homogenous opaque suspension. 5000 μL of vehicle was added into the vial and stirred for 10 min at 1700 rpm to get a homogenous opaque suspension. 5000 μL+5000 μL+5000 μL+924 μL of vehicle was added into the vial and stirred for 10 min at 1700 rpm to get a homogenous opaque suspension. Group 2: 81.66 mg of compound 1 was weighed into a glass vial. 5000 μL of vehicle was added into the vial and stirred for 30 min at 1700 rpm to get a homogenous opaque suspension. 5000 μL of vehicle was added into the vial and stirred for 10 min at 1700 rpm to get a homogenous opaque suspension. 10 mL+10 mL+10 mL+20 mL+10 mL+10 mL+1580 μL of vehicle was added into the vial and stirred for 10 min at 1700 rpm to get a homogenous opaque suspension.
Blood (about 0.2 mL) was collected at each time point via jugular vein puncture from each study animal. The actual time for each sample collection was recorded. The acceptable deviations on sampling time were ±1 min for the time points pre-dose through 1 hour post-dose, and +5% of the nominal time for time points after 1 hour post-dose.
All blood samples were transferred into commercial tubes containing K2-EDTA. After blood was collected, the samples were placed on wet ice and processed for plasma within 60 minutes of collection by centrifugation at approximately 4° C., 3200×g for 10 minutes, and then quickly frozen over dry ice and kept at −60° C. or lower until LC-MS/MS analysis.
Following terminal blood sample collection, animals were conducted CO2 euthanasia, the chest and abdominal cavities were opened carefully lengthwise using scissors to expose the internal organs in preparation of tissue perfusion. A needle was used to puncture a small hole into the left ventricle of the heart, and then clamped with a hemostat. […] Fluid (cold 1×PBS) was infused until the liver pales (typically 2-3 minutes). Following perfusion, 14 kinds of tissues (spleen, bone marrow, adipose, brain, heart, kidney, liver, lung, skin, small intestine, large intestine, eye, gonads, and bladder) were collected from each animal, respectively.
Each tissue was weighed and homogenized on wet ice using homogenizing buffer (MeOH/15 mM PBS 1:2) at the ratio of 1:9 (1 g tissue with 9 mL buffer). The tissue homogenate was kept at −60° C. or lower until LC-MS/MS analysis. […]

[1] = Sprague-Dawley, epididymis and testis, male SD rat, Epididymis & Testis
[2] = Sprague-Dawley, male SD rat, Eyeball (left and right)
[3] = Sprague-Dawley, male SD rat, Fat
[4] = Sprague-Dawley, male SD rat, Heart
[5] = Sprague-Dawley, male SD rat, Kidney (left and right)
[6] = Sprague-Dawley, male SD rat, Large intestine
[7] = Sprague-Dawley, plasma, female SD rat
[8] = Sprague-Dawley, plasma, male SD rat
[9] = female SD rat, Eyeball (left and right)
[10] = female SD rat, Kidney (left and right)

For `C[C@@H](c1ccc(Nc2cc(Nc3ncccc3S(C)(=O)=O)ncn2)nc1)N1CC2(COC2)C1` [Compound 1, (S)—N^4-(5-(1-(2-oxa-6-azaspiro[3.3]heptan-6-yl)ethyl)pyridin-2-yl)-N^6-(3-(methylsulfonyl)pyridin-2-yl)pyrimidine-4,6-diamine], the “Tissue/Plasma Ratio (AUCinf)” value (Kidney) was 9.1, the “Tissue/Plasma Ratio (AUCinf)” value (Large Intestine) was 13 and the Kp (Sprague-Dawley (SD), bone marrow / plasma, Bone Marrow) was 4.3. The Cmax [1] was 350 ng/g, the Tmax [1] was 8 h and the Kp (Sprague-Dawley, adipose, Adipose) was 0.59. For the same compound, the Kp (Sprague-Dawley, bladder, Bladder) was 5, the Kp (Sprague-Dawley, eye, Eye) was 0.8 and the Kp (Sprague-Dawley, kidney, Kidney) was roughly 9. The Kp (Sprague-Dawley, large intestine, Large Intestine) was roughly 13, the Kp (Sprague-Dawley, liver, Liver) was 7.6 and the Kp (Sprague-Dawley, lung, Lung) was 2. For the same compound, the Kp (Sprague-Dawley, skin, Skin) was 3.2, the Kp (Sprague-Dawley, small intestine, Small Intestine) was 21 and the Kp (Sprague-Dawley, spleen, Spleen) was 5.4. The Cmax [2] was 327 ng/g, the Tmax [2] was 0.5 h and the half-life [2] was 4.03 h. The Cmax [3] was 464 ng/g, the Tmax [3] was 0.5 h and the half-life [3] was 3.08 h. It also gave a Cmax [4] of 1260 ng/g, a Tmax [4] of 0.5 h and a half-life [4] of 2.31 h. It also gave a Cmax [5] of 6140 ng/g, a Tmax [5] of 0.5 h and a half-life [5] of 3.79 h. The Cmax [6] was 5180 ng/g, the Tmax [6] was 8 h and the Cmax [7] was 1180 ng/mL. It also gave a Tmax [7] of 0.5 h, a half-life [7] of 2.39 h and an AUC0-inf (Sprague-Dawley, plasma, female SD rat, read-out: AUC0-inf) of 3610 ng·h/mL. The Cmax [8] was 1370 ng/mL, the Tmax [8] was 0.667 h and the half-life [8] was 2.75 h. For the same compound, the AUC0-inf (Sprague-Dawley, plasma, male SD rat, read-out: AUC0-inf) was 2920 ng·h/mL, the AUC0-24 (female SD rat, Bladder) was 17454 ng·h/g and the AUC0-inf (female SD rat, Bladder) was 17693 ng·h/g. It also gave an AUC0-last (female SD rat, Bladder) of 17454 ng·h/g, a Cmax (female SD rat, Bladder) of 4150 ng/g and a Tmax (female SD rat, Bladder) of 2 h. The half-life (female SD rat, Bladder) was 3.61 h, the AUC0-24 (female SD rat, Bone Marrow) was 17781 ng·h/g and the AUC0-inf (female SD rat, Bone Marrow) was 17791 ng·h/g. It also gave an AUC0-last (female SD rat, Bone Marrow) of 15823 ng·h/g, a Cmax (female SD rat, Bone Marrow) of 3840 ng/g and a Tmax (female SD rat, Bone Marrow) of 0.5 h. It also gave a half-life (female SD rat, Bone Marrow) of 2.52 h, an AUC0-24 [9] of 3253 ng·h/g and an AUC0-inf [9] of 3348 ng·h/g. The AUC0-last [9] was 3253 ng·h/g, the Cmax [9] was 449 ng/g and the Tmax [9] was 2 h. The half-life [9] was 4.51 h, the AUC0-24 (female SD rat, Fat) was 1725 ng·h/g and the AUC0-last (female SD rat, Fat) was 1725 ng·h/g. The Cmax (female SD rat, Fat) was 417 ng/g, the Tmax (female SD rat, Fat) was 2 h and the AUC0-24 (female SD rat, Heart) was 5608 ng·h/g. It also gave an AUC0-inf (female SD rat, Heart) of 5627 ng·h/g, an AUC0-last (female SD rat, Heart) of 4754 ng·h/g and a Cmax (female SD rat, Heart) of 1280 ng/g. For the same compound, the Tmax (female SD rat, Heart) was 0.5 h, the half-life (female SD rat, Heart) was 2.88 h and the AUC0-24 [10] was 36323 ng·h/g. The AUC0-inf [10] was 36373 ng·h/g, the AUC0-last [10] was 36323 ng·h/g and the Cmax [10] was 7800 ng/g. It also gave a Tmax [10] of 0.5 h, a half-life [10] of 2.46 h and an AUC0-24 (female SD rat, Large intestine) of 39634 ng·h/g. It also gave an AUC0-last (female SD rat, Large intestine) of 39634 ng·h/g, a Cmax (female SD rat, Large intestine) of 4670 ng/g and a Tmax (female SD rat, Large intestine) of 8 h. For the same compound, the AUC0-24 (female SD rat, Liver) was 29588 ng·h/g, the AUC0-inf (female SD rat, Liver) was 29655 ng·h/g and the AUC0-last (female SD rat, Liver) was 29588 ng·h/g. For the same compound, the Cmax (female SD rat, Liver) was 6310 ng/g, the Tmax (female SD rat, Liver) was 0.5 h and the half-life (female SD rat, Liver) was 2.67 h. The AUC0-24 (female SD rat, Lung) was 8773 ng·h/g, the AUC0-last (female SD rat, Lung) was 8773 ng·h/g and the Cmax (female SD rat, Lung) was 2180 ng/g. The Tmax (female SD rat, Lung) was 2 h, the AUC0-24 (female SD rat, Ovary & Uterus) was 5024 ng·h/g and the AUC0-inf (female SD rat, Ovary & Uterus) was 5028 ng·h/g. It also gave an AUC0-last (female SD rat, Ovary & Uterus) of 4408 ng·h/g, an AUC0-24 (female SD rat, Skin) of 3803 ng·h/g and an AUC0-last (female SD rat, Skin) of 3803 ng·h/g. For the same compound, the Cmax (female SD rat, Skin) was 893 ng/g, the Tmax (female SD rat, Skin) was 2 h and the AUC0-24 (female SD rat, Small intestine) was 59880 ng·h/g. It also gave an AUC0-inf (female SD rat, Small intestine) of 59932 ng·h/g, an AUC0-last (female SD rat, Small intestine) of 59880 ng·h/g and a Cmax (female SD rat, Small intestine) of 12300 ng/g. The Tmax (female SD rat, Small intestine) was 0.5 h and the half-life (female SD rat, Small intestine) was 2.3 h.
